For one data set, the system named is human red blood cells. Put plainly: Hemolytic activity of AmB toward human red blood cells. Type of data set: cell-based. The conditions noted are these: human RBCs, 37° C., 30 min. On the procedure: Human blood was collected and centrifuged (2000 rpm). The supernatant and buffy coat were pipetted off and the red blood cells (RBCs) were diluted with an isotonic phosphate buffer, pH 7.4. The proper dilution factor was estimated from the UV/VIS absorbance of hemoglobin at 576 nm in the supernatant after RBCs were lysed by 20 μg/ml of AmB. A properly diluted sample of RBCs gives an absorbance of 0.4-0.5. Solutions of diluted RBCs (2.5 ml) with varied levels of AmB in different samples were incubated at 37° C. for 30 min. Samples were then placed in ice to stop hemolysis. The unlysed RBCs were removed by centrifugation at 14,000 rpm (about 7000×g) for 20 sec. The supernatant was collected and analyzed for hemoglobin by UV/VIS spectroscopy at 576 nm. The percent of hemolyzed RBCs was determined using this equation: % hemolysis=100(Abs−Abso)/(Abs100−Abso), where Abs, Abso and Abs100 are the absorbance for the sample, control with no AmB and control in the presence of 20 μg/ml AmB, respectively.

Data set [1] can be described thus: UV/VIS spectroscopy, I/IV ratio (self-aggregation state of AmB). Type of data set: physicochemical. The conditions noted are these: intensity at 348 nm to 409 nm, 4 μg/ml AmB, PBS pH 7.4. The method, then: Freeze-dried samples of AmB in PEO-b-PHSA micelles with 11 and 70% stearate substitution were dissolved in PBS, pH=7.4, at 4 μg/ml of AmB. DMSO was used to solubilize AmB in PBS, pH=7.4, at a similar concentration. The level of DMSO in the final sample was <1% (v/v). The UV/VIS spectra of AmB in different samples were recorded from 300 nm to 450 nm.

Another data set deals with Candida albicans. Description: Minimal inhibitory concentration (MIC) of AmB, microwell dilution. Conditions: 35° C., 24 hr. In kind it is cell-based. The method, then: (§1) AmB in PEO-b-PHSA micelles was dissolved in isotonic sodium chloride solution giving an AmB level of 200 μg/ml. AmB was dissolved in DMSO and diluted further with the isotonic sodium chloride solution to give the same concentration. The level of DMSO in the final solution was <1% v/v. Samples of PEO-b-PHSA micelles in sodium chloride solution were also used as controls. Solutions of 20 μl from these samples were diluted with the culture medium (RPMI 1640) (80 μl) in the first microwell. The next 11 microwells had serial two-fold diluted solutions. To each microwell, 100 μl of the inoculum containing 5×10^3 CFU/ml of fungal pathogen (Candida albicans, Aspergillus fumigatus or Cryptococcus neoformans) in culture medium was added, giving a total volume of 200 μl per well. Microwell containers were incubated at 35° C. for 24 hr. Organism and medium controls were performed simultaneously to check the growth of organisms and sterility of culture medium, respectively. […] All tests were repeated three times.

For the next data set, the system named is Cryptococcus neoformans. The data set is described as above. In kind it is cell-based. The conditions noted are these: 35° C., 24 hr. The method, then: as §1
The test system of another data set is Aspergillus fumigatus. Described as above. The conditions noted are these: 35° C., 24 hr. In kind it is cell-based. The method, then:
as §1

The values that follow come from patent US6939561B2, “Methods and compositions for polyene antibiotics with reduced toxicity” (Wisconsin Alumni Research Foundation, priority 2001, dated 2005).

As to `C[C@@H]1[C@H](O)[C@@H](C)/C=C/C=C/C=C/C=C/C=C/C=C/C=C/[C@H](O[C@@H]2O[C@H](C)[C@@H](O)[C@H](N)[C@@H]2O)C[C@@H]2O[C@](O)(C[C@@H](O)C[C@@H](O)[C@H](O)CC[C@@H](O)C[C@@H](O)CC(=O)O[C@H]1C)C[C@H](O)[C@H]2C(=O)O` [AmB, Amphotericin B], the “AmB level causing 100% hemolysis” value in the data set on human red blood cells is listed as “about 1 μg/ml”. For the same molecule, in data set [1], the I/IV ratio entry is listed as “about 1.2”. Besides, the “MIC, AmB level inhibiting growth of C. albicans” value in the data set with Candida albicans turned out to be 0.3 µg/mL. Moreover, in the data set on Cryptococcus neoformans, the “MIC, AmB level inhibiting growth of C. neoformans” value was 0.3 µg/mL. Besides, the “MIC, AmB level inhibiting growth of A. fumigatus” value against Aspergillus fumigatus was found to be 0.45 µg/mL.
